This note sets out measurements from patent US11292803B2, “Bioreducible N-oxide-based probes for imaging of hypoxia” (THE BOARD OF TRUSTEES OF THE UNIVERSITY OF ILLINOIS, priority 2018, dated 2022).

The nature of series [1]: Photophysical characterization (absorbance, emission, extinction coefficient, quantum yield). Conditions: Table 2. Format: physicochemical.
Series [2] is described as follows: Photostability under continuous PA image acquisition. Conditions: 770 nm, 1 hour. Format: physicochemical. As for the experimental part:
FIG. 16. PA signal (770 nm) at the indicated time points of HyP-1 (dots) and red-HyP-1 (squares) solutions (10 μM in 0.1 M potassium phosphate buffer with 50% v/v EtOH) produced upon continuous image acquisition over the course of 1 h. Reported values represent mean PA signal observed after subtracting background signal produced from tissue-mimicking phantom.
(§1) In addition to Fe(II), the response of HyP-1 to a variety of alkali, alkaline earth and transition metals was also determined. […] To further evaluate the stability of HyP-1, a 10 μM solution of the probe was exposed to ambient light and temperature for up to 5 days. Additionally, a 10 μM solution of HyP-1 supplemented with human plasma was incubated at 37° C. for 3 hours. […] As mentioned previously, a major limitation of 2-nitroimidazole-based hypoxia probes is their susceptibility to oxygen-independent reduction via two-electron processes, such as by bacterial nitroreductases. […] Finally, the photostability of both HyP-1 and red-HyP-1 was evaluated via continuous PA image acquisition at 770 nm over the course of 1 hour.

Series [3] deals with purified bacterial nitroreductase. The series is described as follows: Incubation with purified nitroreductase. Format: biochemical. Conditions: NADH, 37° C., 2 h. On the procedure: FIG. 15. […] For the nitroreductase experiment, HyP-1 (2 μM) was incubated in the presence of nitroreductase (0.5 μg/mL) and NADH (100 μM) in 0.1 M potassium phosphate buffer (pH 7.4) at 37° C. for 2 h. For the bacterial experiment, bacteria were grown overnight, and cells were lysed via sonication. The suspension was centrifuged at 4000 rpm for 10 min, and the supernatant was removed. HyP-1 (2 μM) was incubated with cell lysate solution (1 mL) at 37° C. for 2 h.
as §1

The subject of series [4] is ischemic hindlimb tissue. Nature of the series: In vivo PA imaging of hindlimb ischemia model. More on the design: species or system BALB/c mice. Conditions: intramuscular 50 μL, 50 μM; 1 hour after injection. As for the experimental part: After observing the hypoxia-mediated response of HyP-1 in the hindlimb ischemia model, attention was turned to detecting this response using PA imaging. As described above, surgical ligation was employed to induce ischemia, and HyP-1 (50 μL, 50 μM) was administered via intramuscular injection.
All in vivo imaging experiments were performed with the approval of the Institutional Animal Care and Use Committee of the University of Illinois at Urbana-Champaign, following the principles outlined by the American Physiological Society on research animal use. Female mice (5-6 weeks old) were acquired from The Jackson Laboratory. […] Animals that underwent unsuccessful surgery as determined by laser Doppler perfusion imaging were excluded from analysis.
Prior to imaging, hair was removed from the lower body half by shaving and treating with a topical hair removal cream. Mice were positioned on their sides such that the area to be imaged was directly above the light source. Images were acquired using the Step and Shoot mode with 120 angles and 30 pulses per angle. Data was analysed using OsiriX software. […] ROIs of equal area were drawn to include all visible signal in the image, and mean PA signal in each ROI was recorded. Change in PA signal was calculated by subtracting signal from images taken prior to injection from those at given time points.

A short description of series [5]: PA imaging of compound solutions in tissue-mimicking phantoms. Format: physicochemical. Conditions: solutions in tissue-mimicking phantom. On the procedure: FIG. 3. Photophysical characterization of HyP-1 and red-HyP-1. (a) Normalized absorbance (dashed) and emission (solid) spectra of HyP-1 (left) and red-HyP-1 (right). (b) PA spectra of HyP-1 and red-HyP-1. PA images of HyP-1 and red-HyP-1 solutions (10 μM in 0.1 M potassium phosphate buffer (pH 7.4) with 50% EtOH co-solvent) in tissue-mimicking phantoms were obtained, and the mean PA signal corresponding to each compound was plotted as a function of wavelength. Results are presented as mean±SD (n=3). (c) PA signal corresponding to various concentrations of red-HyP-1. […]
The significant change in the absorbance profiles of these compounds can be attributed to disruption of the electron donating capability of the aniline in its N-oxide form. This chemical modification is akin to protonation of the aniline, which has been previously shown to result in similar shifts in the absorbance. The 90 nm separation in absorbance is essential to the probes design as it allows us to readily distinguish each species by selective excitation and subsequent detection using both PA and fluorescence imaging. […] Additionally, because HyP-1 and red-HyP-1 have spectrally resolved emission profiles, ratiometric imaging can be performed by determining the ratio of their fluorescence emission intensities. […]

Take `CC[N+]([O-])(CC)c1ccc(-c2cc(-c3ccccc3)c3n2[B-](F)(F)[N+]2=C(c4ccc(OC)cc4)C=C(c4ccccc4)C2=N3)cc1` [HyP-1, 4-(5,5-difluoro-7-(4-methoxyphenyl)-1,9-diphenyl-5H-5λ^4,6λ^4-dipyrrolo[1,2-c:2′,1′-f][1,3,5,2]triazaborinin-3-yl)-N,N-diethylaniline oxide]: in series [1], the Φ was determined as 0.33, the ε is 1.5 × 10^4 M^−1 · cm^1 and the λabs was determined as 670 nm. In addition, the “PA intensity during continuous acquisition (photostability)” value in series [2] is “remained unchanged”. In addition, the “conversion to red-HyP-1” value in series [3] is reported as “minimal conversion”. Besides, the “PA signal enhancement, ischemic tissue versus control leg” value in series [4] is on record as 3.1 fold. For the same molecule, the “PA signal at 770 nm” value in series [5] is given as “no signal”.

Turning to `CCN(CC)c1ccc(-c2cc(-c3ccccc3)c3n2[B-](F)(F)[N+]2=C(c4ccc(OC)cc4)C=C(c4ccccc4)C2=N3)cc1` [Red-HyP-1, 4-(5,5-difluoro-7-(4-methoxyphenyl)-1,9-diphenyl-5H-5λ^4,6λ^4-dipyrrolo[1,2-c:2′,1′-f][1,3,5,2]triazaborinin-3-yl)-N,N-diethylaniline], in series [1], the Φ is on record as 0.11, the ε is given as 5.4 × 10^4 M^−1 · cm^1 and the λabs was 760 nm. Besides, the “PA intensity during continuous acquisition (photostability)” value in series [2] was “remained unchanged”. Moreover, the “PA signal at 770 nm” value in series [5] is recorded as “strong PA signal”.
